In PMC10320005, “In Campylobacter jejuni, a new type of chaperone receives heme from ferrochelatase” (Frontiers in Genetics, 2023):

How the values were obtained:
UroD (Cj1243) = molecular target: T1, UroD (Cj1243) (Campylobacter jejuni, UniProt Q9PN54); test: linked assay, UV-visible spectroscopy and HPLC-MS of coproporphyrin III; assay type: biochemical; details: uro'gen III made in situ from porphobilinogen with D. vulgaris PbgS and UroS; Tris-HCl pH 8, anaerobic, overnight
T1 construct: gene hemE; N-terminal Strep-tag (pPR-IBA2), E. coli BL21STAR(DE3)pLysS
T1 sequence (Q9PN54 1-340): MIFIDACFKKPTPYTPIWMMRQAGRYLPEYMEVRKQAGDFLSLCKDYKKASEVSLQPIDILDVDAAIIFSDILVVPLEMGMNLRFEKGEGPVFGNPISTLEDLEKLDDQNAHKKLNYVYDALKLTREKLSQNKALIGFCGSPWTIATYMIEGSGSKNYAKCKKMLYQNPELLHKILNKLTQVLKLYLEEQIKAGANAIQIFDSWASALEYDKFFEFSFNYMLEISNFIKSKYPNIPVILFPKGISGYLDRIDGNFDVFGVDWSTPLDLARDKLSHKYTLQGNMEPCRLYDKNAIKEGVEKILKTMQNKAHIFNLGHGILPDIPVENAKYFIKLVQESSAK

CgdH2 (Cj0363c) = molecular target: T2, CgdH2 (Cj0363c) (Campylobacter jejuni, UniProt Q0PBE7); test: UV-visible titration of apo-protein, absorbance difference at […] nm; assay type: binding
T2 construct: gene hemN; full length (448 residues; 447 aa in Discussion), C-terminal His-tag (pET-23b), E. coli BL21STAR(DE3)pLysS; apo-form without Fe-S cluster
T2 sequence (Q0PBE7 1-448): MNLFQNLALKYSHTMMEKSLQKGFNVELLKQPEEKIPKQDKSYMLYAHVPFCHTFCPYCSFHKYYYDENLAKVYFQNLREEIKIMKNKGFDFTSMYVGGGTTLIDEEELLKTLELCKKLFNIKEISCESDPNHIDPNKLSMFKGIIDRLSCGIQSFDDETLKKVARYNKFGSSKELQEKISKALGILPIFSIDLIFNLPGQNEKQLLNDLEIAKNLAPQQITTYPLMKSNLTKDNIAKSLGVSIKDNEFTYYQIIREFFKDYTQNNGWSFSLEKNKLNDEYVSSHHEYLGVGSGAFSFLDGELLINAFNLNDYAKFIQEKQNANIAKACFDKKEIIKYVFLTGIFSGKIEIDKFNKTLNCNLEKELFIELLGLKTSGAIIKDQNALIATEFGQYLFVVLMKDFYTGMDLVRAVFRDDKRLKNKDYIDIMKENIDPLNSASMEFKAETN

PgdH2 (Cj0362) = molecular target: T3, PgdH2 (Cj0362) (Campylobacter jejuni, UniProt Q0PBE8); test: fluorescence of protoporphyrin IX ([…] nm) with E. coli membrane fraction versus empty plasmid; assay type: biochemical; details: 500 nM proto'gen IX, 150 mM NaCl, 20% glycerol, 5 mM DTT, Tris-HCl pH 8, aerobic
T3 construct: expressed from pPR-IBA2 (Strep-tag vector) in E. coli BL21STAR(DE3)pLysS; membrane fraction, not purified
T3 sequence (Q0PBE8 1-150): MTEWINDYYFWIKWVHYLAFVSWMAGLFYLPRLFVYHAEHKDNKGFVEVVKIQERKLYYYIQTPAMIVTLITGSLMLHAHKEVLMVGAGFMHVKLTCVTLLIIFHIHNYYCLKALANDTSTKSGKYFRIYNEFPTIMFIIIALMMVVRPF

CgdH1 (Cj0992c) = molecular target: T4, CgdH1 (Cj0992c) (Campylobacter jejuni, UniProt Q0P9R0); test: HPLC-MS of porphyrin products; assay type: biochemical; details: 10 µM copro'gen III, 1 mM SAM, 0.5 mM NADH, E. coli cell extract added, anaerobic, overnight, room temperature; incomplete reaction via harderoporphyrin intermediate
T4 construct: full length (451 residues), C-terminal His-tag (pET-23b), E. coli BL21STAR(DE3)pLysS; Fe-S cluster reconstituted
T4 sequence (Q0P9R0 1-451): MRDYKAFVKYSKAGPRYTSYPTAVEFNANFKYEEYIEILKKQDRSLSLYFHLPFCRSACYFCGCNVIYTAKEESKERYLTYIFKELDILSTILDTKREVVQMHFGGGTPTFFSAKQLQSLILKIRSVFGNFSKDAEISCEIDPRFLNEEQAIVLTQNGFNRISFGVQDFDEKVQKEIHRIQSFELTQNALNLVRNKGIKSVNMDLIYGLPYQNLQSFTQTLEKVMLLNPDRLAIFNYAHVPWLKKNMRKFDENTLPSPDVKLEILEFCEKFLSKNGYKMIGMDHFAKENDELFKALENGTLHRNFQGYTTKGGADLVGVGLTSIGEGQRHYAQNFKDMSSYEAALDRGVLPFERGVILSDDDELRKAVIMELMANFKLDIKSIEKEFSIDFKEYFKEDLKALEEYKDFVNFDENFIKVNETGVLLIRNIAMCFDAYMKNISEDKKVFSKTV

PpfC (Cj0503c) = molecular target: T5, PpfC (Cj0503c) (Campylobacter jejuni, UniProt Q9PI08); test: ferrochelatase activity, decrease of protoporphyrin IX at […] nm; assay type: biochemical; details: 10 µM protoporphyrin IX, 20 µM (NH4)2Fe(SO4)2, 5 mM DTT, 150 mM NaCl, 20% glycerol, Tris-HCl pH 8, anaerobic, room temperature
T5 construct: gene hemH; N-terminal Strep-tag (pPR-IBA2), E. coli BL21STAR(DE3)pLysS, solubilised with Triton X-100
T5 sequence (Q9PI08 1-303): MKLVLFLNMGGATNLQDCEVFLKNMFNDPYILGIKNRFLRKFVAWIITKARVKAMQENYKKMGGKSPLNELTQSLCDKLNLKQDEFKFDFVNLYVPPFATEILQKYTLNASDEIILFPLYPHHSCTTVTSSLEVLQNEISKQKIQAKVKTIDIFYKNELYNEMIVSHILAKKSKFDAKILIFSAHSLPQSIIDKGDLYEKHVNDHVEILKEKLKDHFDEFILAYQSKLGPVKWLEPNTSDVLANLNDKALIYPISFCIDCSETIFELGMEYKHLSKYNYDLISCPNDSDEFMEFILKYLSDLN

SMILES: O=C(O)CCc1c2[nH]c(c1CC(=O)O)Cc1[nH]c(c(CC(=O)O)c1CCC(=O)O)Cc1[nH]c(c(CC(=O)O)c1CCC(=O)O)Cc1[nH]c(c(CCC(=O)O)c1CC(=O)O)C2 [uro'gen III]
- linked assay, UV-visible spectroscopy and HPLC-MS of coproporphyrin III (UroD (Cj1243)): confirmed the formation of copro'gen III

SMILES: C=CC1=C(C)C2=Cc3c(C=C)c(C)c4[n]3[Fe]([Cl])[n]3c(c(C)c(CCC(=O)O)c3=CC3=NC(=C4)C(C)=C3CCC(=O)O)=CC1=N2 [hemin]
- Kd (CgdH2 (Cj0363c)): 4.9 ± 1 µM

SMILES: C=Cc1c2[nH]c(c1C)Cc1[nH]c(c(CCC(=O)O)c1C)Cc1[nH]c(c(C)c1CCC(=O)O)Cc1[nH]c(c(C)c1C=C)C2 [proto'gen IX]
- fluorescence of protoporphyrin IX (390/630 nm) with E. coli membrane fraction ve (PgdH2 (Cj0362)): Cells containing Cj0362 exhibited much higher activity for the oxidation of proto'gen IX

SMILES: Cc1c2[nH]c(c1CCC(=O)O)Cc1[nH]c(c(CCC(=O)O)c1C)Cc1[nH]c(c(CCC(=O)O)c1C)Cc1[nH]c(c(C)c1CCC(=O)O)C2 [copro'gen III]
- HPLC-MS of porphyrin products (CgdH1 (Cj0992c)): The expected final reactional product, protoporphyrin IX (the oxidized form of proto'gen IX), was observed

SMILES: C=CC1=C(C)c2cc3[nH]c(cc4nc(cc5[nH]c(cc1n2)c(C)c5CCC(=O)O)C(CCC(=O)O)=C4C)c(C)c3C=C [protoporphyrin IX]
- ferrochelatase activity, decrease of protoporphyrin IX at 408 nm (PpfC (Cj0503c)): C. jejuni Cj0503c exhibits a ferrochelatase specific activity
